Source: publication PMC6344480 (Nature Communications, 2019)

Target: T1, AsfvLIG (African swine fever virus BA71V, UniProt P35970)
T1 construct: gene LIG
Settings: non-catalytic AsfvLIG:DNA complex; no Mg2+; bound in the adenylation domain near catalytic Lys151

T1 sequence (P35970 whole entry, looked up): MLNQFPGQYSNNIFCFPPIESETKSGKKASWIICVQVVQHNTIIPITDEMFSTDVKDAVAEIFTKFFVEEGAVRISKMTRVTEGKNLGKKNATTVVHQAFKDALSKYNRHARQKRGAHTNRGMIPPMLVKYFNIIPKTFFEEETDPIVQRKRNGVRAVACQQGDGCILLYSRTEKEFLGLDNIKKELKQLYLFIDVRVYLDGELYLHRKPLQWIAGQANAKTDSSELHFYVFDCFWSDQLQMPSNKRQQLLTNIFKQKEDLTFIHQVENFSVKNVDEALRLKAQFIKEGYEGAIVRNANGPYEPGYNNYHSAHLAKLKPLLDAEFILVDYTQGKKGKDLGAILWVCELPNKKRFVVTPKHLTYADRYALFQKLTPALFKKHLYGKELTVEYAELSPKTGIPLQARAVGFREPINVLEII

SMILES: Nc1ncnc2c1ncn2[C@@H]1O[C@H](COP(=O)(O)OP(=O)(O)OP(=O)(O)O)[C@@H](O)[C@H]1O [ATP]
- X-ray crystal structure (Se-SAD): the ATP is bound by the AD domain and stabilized by various interactions
